This is an account of results in ChEMBL document CHEMBL4017484, “Nitric Oxide Donor-Based Cancer Therapy: Advances and Prospects” (J Med Chem, 2017).

Series [1] concerns HL-60. Briefly: Antiproliferative activity against human HL60 cells assessed as decrease in cell viability measured after 3 days by MTT assay. It counts as functional, cell-based. Particulars: HL-60, 72 h. For orientation: Tetrazolium dyes change colour on reduction, which living cells bring about.
The subject of series [2] is HL-60. Briefly: Antitumor activity against human HL60 cells xenografted in NOD-SCID mouse assessed as reduction in tumor growth at 4 umol/kg, iv measured after 15 to 20 days. It counts as functional. Particulars: HL-60, iv, read-out: TGI. Background: Xenograft models place foreign cells or tissue in a host animal.
In another series the test system is HT-29. Briefly: Antitumor activity against human HT-29 cells xenografted in athymic nu/nu mouse assessed as reduction in tumor growth at 100 mg/kg administered every day for 18 days relative to vehicle-treated control. It counts as functional. To be noted: HT-29, 432 h, read-out: TGI.
Series [3] in a line: Acute toxicity in iv dosed BALB/c nude mouse assessed as mortality after 14 days. It counts as organism-based. To be noted: in vivo.
Substrate in series [4]: CC(=O)N[C@H]1[C@@H]([C@H](O)[C@H](O)CO)O[C@@](O/N=[N+](\[O-])N2CCCC2)(C(=O)O)C[C@@H]1O
Briefly: Activity at Clostridium perfringens neuraminidase assessed as release of nitric oxide by UV-vis spectrophotometer.

With `CCOC(=O)N1CCN(/[N+]([O-])=N/Oc2ccc([N+](=O)[O-])cc2[N+](=O)[O-])CC1`, the 50% inhibitory concentration (IC50) in the series with HL-60 [1] was in the range of 200 to 500 nM. In addition, the inhibition in vivo at 4 µmol/kg in the series with HL-60 [2] came out at 50%.

For the molecule `O=C(CCCO[N+](=O)[O-])Oc1ccccc1C(=O)Oc1ccc(-c2cc(=S)ss2)cc1`, the inhibition in vivo at 100 mg/kg with HT-29 was determined as 85%.

Take `CC1(C)CC[C@]2(C(=O)O[C@H]3O[C@@H](CO)[C@H](O)[C@@H](O)[C@@H]3O)CC[C@]3(C)C(=CC[C@@H]4[C@@]5(C)CC[C@H](OC(=O)CCC(=O)OC6CCN(/[N+]([O-])=N/O[C@@H]7O[C@H](CO)[C@H](O)[C@H](O)[C@H]7O)CC6)C(C)(C)[C@@H]5CC[C@]43C)[C@@H]2C1`: the LD50 at 336 h in series [3] was found to be 173 mg/kg.

B1: Sialidase (Clostridium perfringens), P10481 (protein)
chain: MCNKNNTFEKNLDISHKPEPLILFNKDNNIWNSKYFRIPNIQLLNDGTILTFSDIRYNGPDDHAYIDIASARSTDFGKTWSYNIAMKNNRIDSTYSRVMDSTTVITNTGRIILIAGSWNTNGNWAMTTSTRRSDWSVQMIYSDDNGLTWSNKIDLTKDSSKVKNQPSNTIGWLGGVGSGIVMDDGTIVMPAQISLRENNENNYYSLIIYSKDNGETWTMGNKVPNSNTSENMVIELDGALIMSTRYDYSGYRAAYISHDLGTTWEIYEPLNGKILTGKGSGCQGSFIKATTSNGHRIGLISAPKNTKGEYIRDNIAVYMIDFDDLSKGVQEICIPYPEDGNKLGGGYSCLSFKNNHLGIVYEANGNIEYQDLTPYYSLINKQ
Take B1: the Km in series [4] is 140 µM.

A word on the IC50: it is the midpoint of a concentration-inhibition curve. For orientation: LD50 means the dose expected to kill half of the subjects tested. For orientation: Km means the concentration of substrate that gives half-maximal velocity.
